In patent US12162840B2, “Herbicidal compositions” (SYNGENTA PARTICIPATIONS AG, priority 2018, dated 2024):

Test system: cool season plant species
Experiment: B2 Post-emergence efficacy Test 2, cool season plant species
Type: in vivo
Details: 15 days after application, 0=no damage, 100=total kill
Outline: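 Plants at 12 days post-sowing were sprayed with active ingredient formulated in IF50 plus 0.2% v/v Genapol XO80, then grown in a glasshouse (24/18 °C or 20/16 °C day/night, 16 h light, 65% humidity). Damage scored 15 days after application on 0–100 scale (100 = total kill).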

Cc1nn(C)c(=O)c(-c2c(F)ccc(Cl)c2CCc2ccccc2C(F)(F)F)c1O [Compound 1.066]
Herbicidal activity (0-100 scale) ALOMY (15 g/Ha): 20
Herbicidal activity (0-100 scale) ALOMY (30 g/Ha): 50
Herbicidal activity (0-100 scale) ALOMY (60 g/Ha): 70
Herbicidal activity (0-100 scale) ALOMY (125 g/Ha): 80
Herbicidal activity (0-100 scale) ALOMY (250 g/Ha): 90
Herbicidal activity (0-100 scale) ALOMY (500 g/Ha): 90
Herbicidal activity (0-100 scale) AVEFA (15 g/Ha): 0
Herbicidal activity (0-100 scale) AVEFA (30 g/Ha): 20
Herbicidal activity (0-100 scale) AVEFA (60 g/Ha): 40
Herbicidal activity (0-100 scale) AVEFA (125 g/Ha): 90
Herbicidal activity (0-100 scale) AVEFA (250 g/Ha): 90
Herbicidal activity (0-100 scale) AVEFA (500 g/Ha): 90
Herbicidal activity (0-100 scale) BEAVA (15 g/Ha): 80
Herbicidal activity (0-100 scale) BEAVA (30 g/Ha): 80
Herbicidal activity (0-100 scale) BEAVA (60 g/Ha): 80
Herbicidal activity (0-100 scale) BEAVA (125 g/Ha): 80
Herbicidal activity (0-100 scale) BEAVA (250 g/Ha): 80
Herbicidal activity (0-100 scale) BEAVA (500 g/Ha): 90
Herbicidal activity (0-100 scale) BROTE (15 g/Ha): 0
Herbicidal activity (0-100 scale) BROTE (30 g/Ha): 20
Herbicidal activity (0-100 scale) BROTE (60 g/Ha): 60
Herbicidal activity (0-100 scale) BROTE (125 g/Ha): 70
Herbicidal activity (0-100 scale) BROTE (250 g/Ha): 80
Herbicidal activity (0-100 scale) BROTE (500 g/Ha): 90
Herbicidal activity (0-100 scale) BRSNN (15 g/Ha): 90
Herbicidal activity (0-100 scale) BRSNN (30 g/Ha): 90
Herbicidal activity (0-100 scale) BRSNN (60 g/Ha): 90
Herbicidal activity (0-100 scale) BRSNN (125 g/Ha): 90
Herbicidal activity (0-100 scale) BRSNN (250 g/Ha): 90
Herbicidal activity (0-100 scale) BRSNN (500 g/Ha): 90
Herbicidal activity (0-100 scale) CHEAL (30 g/Ha): 90
Herbicidal activity (0-100 scale) CHEAL (60 g/Ha): 90
Herbicidal activity (0-100 scale) CHEAL (125 g/Ha): 90
Herbicidal activity (0-100 scale) CHEAL (250 g/Ha): 100
Herbicidal activity (0-100 scale) CHEAL (500 g/Ha): 100
Herbicidal activity (0-100 scale) GALAP (15 g/Ha): 20
Herbicidal activity (0-100 scale) GALAP (30 g/Ha): 20
Herbicidal activity (0-100 scale) GALAP (60 g/Ha): 20
Herbicidal activity (0-100 scale) GALAP (125 g/Ha): 20
Herbicidal activity (0-100 scale) GALAP (250 g/Ha): 30
Herbicidal activity (0-100 scale) GALAP (500 g/Ha): 90
Herbicidal activity (0-100 scale) HORVW (15 g/Ha): 0
Herbicidal activity (0-100 scale) HORVW (30 g/Ha): 10
Herbicidal activity (0-100 scale) HORVW (60 g/Ha): 20
Herbicidal activity (0-100 scale) HORVW (125 g/Ha): 70
Herbicidal activity (0-100 scale) HORVW (250 g/Ha): 80
Herbicidal activity (0-100 scale) HORVW (500 g/Ha): 90
Herbicidal activity (0-100 scale) KCHSC (15 g/Ha): 0
Herbicidal activity (0-100 scale) KCHSC (30 g/Ha): 0
Herbicidal activity (0-100 scale) KCHSC (60 g/Ha): 0
Herbicidal activity (0-100 scale) KCHSC (125 g/Ha): 10
Herbicidal activity (0-100 scale) KCHSC (250 g/Ha): 20
Herbicidal activity (0-100 scale) KCHSC (500 g/Ha): 20
Herbicidal activity (0-100 scale) LOLPE (15 g/Ha): 10
Herbicidal activity (0-100 scale) LOLPE (30 g/Ha): 20
Herbicidal activity (0-100 scale) LOLPE (60 g/Ha): 80
Herbicidal activity (0-100 scale) LOLPE (125 g/Ha): 90
Herbicidal activity (0-100 scale) LOLPE (250 g/Ha): 90
Herbicidal activity (0-100 scale) LOLPE (500 g/Ha): 100
Herbicidal activity (0-100 scale) POAAN (15 g/Ha): 20
Herbicidal activity (0-100 scale) POAAN (30 g/Ha): 70
Herbicidal activity (0-100 scale) POAAN (60 g/Ha): 80
Herbicidal activity (0-100 scale) POAAN (125 g/Ha): 90
Herbicidal activity (0-100 scale) POAAN (250 g/Ha): 90
Herbicidal activity (0-100 scale) POAAN (500 g/Ha): 90
Herbicidal activity (0-100 scale) POLCO (15 g/Ha): 70
Herbicidal activity (0-100 scale) POLCO (30 g/Ha): 80
Herbicidal activity (0-100 scale) POLCO (60 g/Ha): 90
Herbicidal activity (0-100 scale) POLCO (125 g/Ha): 90
Herbicidal activity (0-100 scale) POLCO (250 g/Ha): 100
Herbicidal activity (0-100 scale) POLCO (500 g/Ha): 100
Herbicidal activity (0-100 scale) SINAR (15 g/Ha): 60
Herbicidal activity (0-100 scale) SINAR (30 g/Ha): 60
Herbicidal activity (0-100 scale) SINAR (60 g/Ha): 80
Herbicidal activity (0-100 scale) SINAR (125 g/Ha): 90
Herbicidal activity (0-100 scale) SINAR (250 g/Ha): 90
Herbicidal activity (0-100 scale) SINAR (500 g/Ha): 90
Herbicidal activity (0-100 scale) STEME (15 g/Ha): 80
Herbicidal activity (0-100 scale) STEME (30 g/Ha): 60
Herbicidal activity (0-100 scale) STEME (60 g/Ha): 90
Herbicidal activity (0-100 scale) STEME (125 g/Ha): 90
Herbicidal activity (0-100 scale) STEME (250 g/Ha): 90
Herbicidal activity (0-100 scale) STEME (500 g/Ha): 100
Herbicidal activity (0-100 scale) TRZAW (15 g/Ha): 0
Herbicidal activity (0-100 scale) TRZAW (30 g/Ha): 10
Herbicidal activity (0-100 scale) TRZAW (60 g/Ha): 40
Herbicidal activity (0-100 scale) TRZAW (125 g/Ha): 60
Herbicidal activity (0-100 scale) TRZAW (250 g/Ha): 70
Herbicidal activity (0-100 scale) TRZAW (500 g/Ha): 80
Herbicidal activity (0-100 scale) VERPE (15 g/Ha): 80
Herbicidal activity (0-100 scale) VERPE (30 g/Ha): 90
Herbicidal activity (0-100 scale) VERPE (60 g/Ha): 100
Herbicidal activity (0-100 scale) VERPE (125 g/Ha): 100
Herbicidal activity (0-100 scale) VERPE (250 g/Ha): 100
Herbicidal activity (0-100 scale) VERPE (500 g/Ha): 100
